Reference: publication PMC10470178, “Long-acting lenacapavir protects macaques against intravenous challenge with simian-tropic HIV” (eBioMedicine, 2023)
Where two headings read alike, the source gives them in different places.

Columns and labels:
[1] = assay type: in vivo, pigtail macaques (Macaca nemestrina)
Method: (§1) Sixteen male, purpose-bred pigtail macaques (Macaca nemestrina; ages 4.6–8.5 years at the time of study initiation) were housed at NIH-Bethesda (Supplementary Table S1). All study animals received enrofloxacin (10 mg/kg, administered orally, once per day for 10 days), paromomycin (25 mg/kg, administered orally, twice daily for 7–10 days), and fenbendazole (50 mg/kg administered orally, once per day for 5 days) two weeks to 43 months prior to study initiation. Lenacapavir or drug vehicle (sterile, preservative-free 57.5% w/v polyethylene glycol 300 in water) doses were administered to sedated animals via SC injection into the scapular region such that no more than 2 ml of solution was injected into a single SC site. Animals in the LEN pharmacokinetic evaluation study (N = 6) each received two doses of LEN, both at 15 mg/kg (N = 3) or at 50 mg/kg (N = 3), 6 weeks apart. Animals in the virus challenge experiment each received a single dose of LEN at 25 mg/kg (N = 3, LEN PrEP group) or drug vehicle (N = 4, vehicle control group) 30 days prior to stHIV-A19 challenge, or a cART regimen consisting of tenofovir disoproxil fumarate (TDF), emtricitabine (FTC), and dolutegravir (DTG) (N = 3, TDF/FTC/DTG group), coformulated and administered as previously described[29]^,[30] for 7 days beginning 3 days prior to stHIV-A19 challenge (Supplementary Figure S1). Hair was clipped and skin marked at LEN and vehicle injection sites to allow for subsequent visual and manual assessment and scoring of potential ISRs by non-blinded veterinary care staff. Complete blood counts (CBC) and serum chemistries were monitored prior to and at 2- to 4-week intervals after LEN administration for at least one year. Following the first dose of LEN in the PK study, one animal in the 50-mg/kg dosing group received 7 consecutive days of daily ketoprofen (2 mg/kg) administered intramuscularly for ISR analgesia at veterinary discretion. For the second dose of LEN in the PK study, all animals in the 50-mg/kg dosing group received 5–7 consecutive days of twice daily oral carprofen (2 mg/kg) analgesia administered prophylactically starting on the day of LEN dosing. In the IV challenge PrEP study, all LEN and vehicle control animals received 3–5 consecutive days of twice daily oral carprofen (2 mg/kg) analgesia administered prophylactically starting on the day of injection. For virus challenge, PrEP study animals each received 1 × 10^5 infectious units of stHIV-A19 injected intravenously. After LEN washout, LEN PrEP group animals received a single 50-mg/kg dose of rhesusized depleting anti-CD8α antibody (MT807R1, RRID: AB_2716320, NIH Nonhuman Primate Reagent Resource), administered SC to anesthetized animals.

[2] = Equilibrium dialysis shift assay in PTM plasma; assay type: in vitro ADME, pigtail macaque; conditions: competitive equilibrium dialysis, LEN 2 μM in 10% PTM plasma, 4 donors, 24 h, 37 °C
Method: The protein shift ratio for LEN in PTM plasma was determined by competitive equilibrium dialysis. Lenacapavir (2 μM) was spiked into 10% PTM plasma from each of 4 individual donors (3 males and 1 female) and then placed in triplicate into one side of assembled dialysis cells (Harvard Apparatus), followed by the addition of RPMI cell culture medium containing 10% foetal bovine serum to the opposite side of each cell. After a 24-h equilibration period at 37 °C, plasma and cell culture medium samples were collected and individually mixed 1:1 with the reciprocal blank matrix. Samples were then deproteinated following the addition of acetonitrile (1:4 ratio, respectively) containing 50 ng/ml warfarin and 50 ng/ml ritonavir as an internal standard and analysed using a liquid chromatography with tandem mass spectrometry (LC-MS/MS) method utilizing a SciEx API 4000 triple quadrupole mass spectrometer equipped with a Shimadzu Nexera UPLC system. The mean plasma protein binding-adjusted shift for LEN in 100% PTM plasma obtained from 4 independent experiments, each using a single PTM plasma donor performed in triplicate, was then calculated using a non-linear equation.

stHIV-A19 = assay: PrEP protection from high-dose intravenous stHIV-A19 challenge in pigtail macaques; assay type: in vivo, pigtail macaques (Macaca nemestrina)
Method: as §1
Simian-tropic HIV was isolated from clarified PTM plasma by centrifugation (21,000×g for 1 h), and the resultant pellet was extracted as described.[31] Pigtail macaque PBMCs were subjected to nucleic acid extraction essentially as previously described for tissues.[32] HIV gag DNA and RNA copies were assessed using a multiplexed qPCR assay, as previously described.[33] Plasma stHIV-A19 vRNA levels are reported as copies/ml of plasma. PBMC-associated stHIV-A19 vDNA levels are reported as copies/10^6 cell equivalents, based on 2 copies of the CCR5 gene per diploid cellular genome.[34]
Plasma specimens collected from all 10 virus challenge animals prior to and at 8 weeks after stHIV-A19 challenge were evaluated for the presence of antibodies specific for HIV-1 by Western blot analysis using the GS HIV-1 Western Blot kit (Bio-Rad, cat #32508) according to the manufacturer’s instructions.
Statistical analyses were performed using R v4.1.1 ((R Core Team, 2021). R: A language and environment for statistical computing. R Foundation for Statistical Computing, Vienna, Austria. URL https://www.R-project.org/). […]

[3] = all 3 LEN PrEP animals, 34 days of monitoring after anti-CD8α antibody at 419 days post-challenge

CC(C)(C#Cc1ccc(-c2ccc(Cl)c3c(NS(C)(=O)=O)nn(CC(F)(F)F)c23)c([C@H](Cc2cc(F)cc(F)c2)NC(=O)Cn2nc(C(F)(F)F)c3c2C(F)(F)[C@@H]2C[C@H]32)n1)S(C)(=O)=O [LEN, Lenacapavir]
ISR cumulative incidence: Erythema ([1]; 15 mg/kg SC, Dose 1): 3/3 | ISR cumulative incidence: Hyperkeratosis ([1]; 15 mg/kg SC, Dose 1): 2/3 | ISR cumulative incidence: Nodule ([1]; 15 mg/kg SC, Dose 1): 3/3 | ISR cumulative incidence: Ulceration ([1]; 15 mg/kg SC, Dose 1): 0/3 | ISR cumulative incidence: Erythema ([1]; 15 mg/kg SC, Dose 2): 0/3 | ISR cumulative incidence: Hyperkeratosis ([1]; 15 mg/kg SC, Dose 2): 0/3 | ISR cumulative incidence: Nodule ([1]; 15 mg/kg SC, Dose 2): 1/3 | ISR cumulative incidence: Ulceration ([1]; 15 mg/kg SC, Dose 2): 0/3 | ISR cumulative incidence: Erythema ([1]; 25 mg/kg SC, Dose 1): 0/3 | ISR cumulative incidence: Hyperkeratosis ([1]; 25 mg/kg SC, Dose 1): 2/3 | ISR cumulative incidence: Nodule ([1]; 25 mg/kg SC, Dose 1): 3/3 | ISR cumulative incidence: Ulceration ([1]; 25 mg/kg SC, Dose 1): 2/3 | ISR cumulative incidence: Erythema ([1]; 50 mg/kg SC, Dose 1): 0/3 | ISR cumulative incidence: Hyperkeratosis ([1]; 50 mg/kg SC, Dose 1): 0/3 | ISR cumulative incidence: Nodule ([1]; 50 mg/kg SC, Dose 1): 3/3 | ISR cumulative incidence: Ulceration ([1]; 50 mg/kg SC, Dose 1): 1/3 | ISR cumulative incidence: Erythema ([1]; 50 mg/kg SC, Dose 2): 0/3 | ISR cumulative incidence: Hyperkeratosis ([1]; 50 mg/kg SC, Dose 2): 2/3 | ISR cumulative incidence: Nodule ([1]; 50 mg/kg SC, Dose 2): 3/3 | ISR cumulative incidence: Ulceration ([1]; 50 mg/kg SC, Dose 2): 2/3 | complete blood counts (CBC) and blood serum chemistries ([1]; PTMs that received SC LEN injections): No abnormalities or significant changes | injection site reactions (ISRs), severity ([1]; some animals following some SC LEN injections): Mild to moderate | projected reduction of antiviral potency in 100% PTM plasma vs complete cell culture media (protein shift) [2]: 9.7 fold | PBMC vDNA following CD8 depletion (stHIV-A19; [3]): 6.2–11.0 vDNA copies/10^6 PBMC | plasma vRNA following CD8 depletion (stHIV-A19; [3]): < 2.8 vRNA copies/ml plasma | cell-associated viral DNA (CA-vDNA) in PBMC after stHIV-A19 challenge (stHIV-A19; all animals of the group, any time point): vDNA was not detected at any time point | plasma vRNA after stHIV-A19 challenge (stHIV-A19; assay threshold 2.8 vRNA copies/ml, LEN ∼370 days follow-up, TDF/FTC/DTG through 120 days post-challenge): no plasma vRNA detected at any time point | infection rates compared with vehicle control group (stHIV-A19; each p < 0.03, Fisher's exact test): significantly lower than in the vehicle control group | HIV-1 Western blot serology (stHIV-A19; plasma, 8 weeks after stHIV-A19 challenge, all animals): remained seronegative | protection from infection after stHIV-A19 challenge (stHIV-A19; single IV challenge 1 × 10^5 i.u., LEN 25 mg/kg SC 30 days before (N = 3), 3-drug regimen daily SC for 7 days from 3 days before (N = 3)): protected PTMs from infection
